Results on 6 compounds are retold here after article PMC1586004, “Dibenzazecine compounds with a novel dopamine/5HT2A receptor profile and 3D-QSAR analysis” (BMC Pharmacology, 2006).

Molecules are shown by their SMILES. Marks after values point to notes of the source that are not given here.

For test [1], the target named is T1, hD1 receptor (Homo sapiens, UniProt P21728).
T1 construct: expressed in transfected cells
The test is described as follows: [35S]-GTPγS binding in HEK293-hD1 cell membranes. The class given is biochemical.
Experimental: (§1) For [^35S]-GTPγS-binding, cell pellets were resuspended in 10 mM Tris-HCl/1 mM EDTA, pH 7.4, homogenized in a glass-teflon homogenizer and centrifuged for 15 min (40,000 × g, 4°C). Supernatant was discarded, and pellet was washed twice with ice-cold Tris-HCl/EDTA buffer and finally resuspended in 50 mM Tris-HCl, 4 mM MgCl2, 1 mM EDTA, 250 mM sucrose, pH 7.4, and stored at -80°C. The protein content was determined according to the Bradford method [30] with gamma immunoglobulin as standard.

Test [2] has as its target T1, hD1 receptor. As to the kind of experiment: Radioligand competition binding at hD1 receptors (cell membranes). Conditions: for higher affinities for D1-like than for D2-like receptors: binding (table 2).
For test [3], the target named is T2, hD2L receptor (Homo sapiens, UniProt P14416).
T2 construct: expressed in transfected cells
The test is described as follows: Radioligand competition binding at hD2L receptors (cell membranes). Conditions: read-out: pKi hD2L (converted).

Test [4] has as its target T2, hD2L receptor. The test is described as follows: Intracellular [Ca2+] fluorescence assay, HEK293-hD2L cells. The class given is cell-based.
Another test deals with T3, hD4.4 receptor (Homo sapiens, UniProt P21917).
T3 sequence (P21917 1-419): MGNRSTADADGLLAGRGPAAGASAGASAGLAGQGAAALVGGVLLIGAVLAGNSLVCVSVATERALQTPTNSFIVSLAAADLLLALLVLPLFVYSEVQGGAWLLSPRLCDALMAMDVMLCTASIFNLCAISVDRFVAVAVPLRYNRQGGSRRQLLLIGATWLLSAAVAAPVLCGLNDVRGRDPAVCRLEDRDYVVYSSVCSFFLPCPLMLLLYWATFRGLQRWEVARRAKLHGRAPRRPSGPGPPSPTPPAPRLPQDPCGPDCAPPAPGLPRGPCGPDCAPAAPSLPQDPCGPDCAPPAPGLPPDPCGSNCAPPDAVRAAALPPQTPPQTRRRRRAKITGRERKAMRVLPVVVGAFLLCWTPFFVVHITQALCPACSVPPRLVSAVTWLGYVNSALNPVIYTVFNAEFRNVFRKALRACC
As to the kind of experiment: Radioligand competition binding at hD4.4 receptors (cell membranes). Conditions: read-out: pKi hD4.4 (converted).

Test [5] addresses T1, hD1 receptor. The test is described as follows: Intracellular [Ca2+] fluorescence assay, HEK293-hD1 cells. Type of test: cell-based.
The target in the next test is T4, hD3 receptor (Homo sapiens, UniProt P35462).
T4 construct: expressed in transfected cells
The test is described as follows: Radioligand competition binding at hD3 receptors (cell membranes). Conditions: read-out: pKi hD3 (converted).

In the next test the target is h5HT2A receptor (Homo sapiens, UniProt P28223). The test is described as follows: Radioligand competition binding at h5HT2A receptors (cell membranes). Conditions: read-out: pKi h5HT2A (converted).
In test [6] the target is T2, hD2L receptor. As to the kind of experiment: [35S]-GTPγS binding in HEK293-hD2L cell membranes. Type of test: biochemical. Conditions: read-out: pKi app [35S]-GTPγS binding hD2L (converted).
Experimental: as §1
A further test has as its target T5, hD5 receptor (Homo sapiens, UniProt P21918).
T5 construct: expressed in transfected cells
As to the kind of experiment: Radioligand competition binding at hD5 receptors (cell membranes). Conditions: read-out: pKi hD5 (converted).

The target of test [7] is T2, hD2L receptor. As to the kind of experiment: Intracellular [cAMP], CRE-luciferase reporter gene assay, HEK293-hD2L cells. Type of test: cell-based. Conditions: read-out: pKi app [cAMP]i hD2L (converted).
For test [8], the target named is T1, hD1 receptor. The test is described as follows: Intracellular [cAMP], CRE-luciferase reporter gene assay, HEK293-hD1 cells. Type of test: cell-based.
In test [9] the target is T1, hD1 receptor. Conditions: radioligand binding literature data; cited from earlier work.
Test [10] concerns the target T2, hD2L receptor. Conditions: radioligand binding literature data; cited from earlier work.
Where [11] appears, read: Schild and Clark analyses, Ca2+ assay.

T1 sequence (P21728 whole entry): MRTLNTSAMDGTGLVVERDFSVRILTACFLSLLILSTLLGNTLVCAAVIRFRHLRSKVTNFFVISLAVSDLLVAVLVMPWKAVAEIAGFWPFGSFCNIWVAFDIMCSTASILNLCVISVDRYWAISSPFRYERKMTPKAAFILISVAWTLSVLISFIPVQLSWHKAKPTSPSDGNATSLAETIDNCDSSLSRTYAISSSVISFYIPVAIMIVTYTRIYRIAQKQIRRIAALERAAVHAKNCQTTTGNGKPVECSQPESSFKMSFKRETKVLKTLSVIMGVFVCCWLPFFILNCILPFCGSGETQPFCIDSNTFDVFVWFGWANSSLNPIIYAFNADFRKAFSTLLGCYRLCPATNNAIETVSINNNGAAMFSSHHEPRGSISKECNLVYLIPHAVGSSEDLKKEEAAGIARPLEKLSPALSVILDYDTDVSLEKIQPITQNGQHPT
T2 sequence (P14416 whole entry): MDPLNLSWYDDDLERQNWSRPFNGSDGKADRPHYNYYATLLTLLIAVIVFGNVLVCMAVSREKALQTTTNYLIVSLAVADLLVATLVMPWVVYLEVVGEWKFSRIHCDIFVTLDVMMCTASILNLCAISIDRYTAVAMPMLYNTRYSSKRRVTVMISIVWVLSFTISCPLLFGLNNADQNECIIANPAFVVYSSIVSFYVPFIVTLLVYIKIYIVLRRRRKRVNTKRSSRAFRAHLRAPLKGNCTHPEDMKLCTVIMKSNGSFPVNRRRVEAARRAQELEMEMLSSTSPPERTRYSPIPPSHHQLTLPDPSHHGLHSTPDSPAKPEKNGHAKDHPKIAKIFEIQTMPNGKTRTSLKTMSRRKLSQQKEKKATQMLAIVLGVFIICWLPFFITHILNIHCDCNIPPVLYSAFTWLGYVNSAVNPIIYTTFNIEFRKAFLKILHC
Sequence of h5HT2A receptor (P28223 whole entry): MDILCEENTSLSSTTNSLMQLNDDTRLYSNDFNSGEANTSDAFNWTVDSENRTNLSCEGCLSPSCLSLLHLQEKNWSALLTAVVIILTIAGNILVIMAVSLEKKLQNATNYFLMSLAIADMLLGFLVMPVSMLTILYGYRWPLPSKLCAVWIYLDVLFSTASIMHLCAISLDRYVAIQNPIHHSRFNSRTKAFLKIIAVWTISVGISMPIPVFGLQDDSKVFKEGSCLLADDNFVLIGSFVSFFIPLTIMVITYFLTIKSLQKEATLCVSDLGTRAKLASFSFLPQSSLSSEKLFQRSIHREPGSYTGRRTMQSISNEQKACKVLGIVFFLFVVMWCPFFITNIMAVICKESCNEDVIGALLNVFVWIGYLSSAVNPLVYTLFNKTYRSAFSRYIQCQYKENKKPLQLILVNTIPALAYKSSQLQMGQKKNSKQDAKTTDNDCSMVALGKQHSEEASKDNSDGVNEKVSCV
T4 sequence (P35462 whole entry): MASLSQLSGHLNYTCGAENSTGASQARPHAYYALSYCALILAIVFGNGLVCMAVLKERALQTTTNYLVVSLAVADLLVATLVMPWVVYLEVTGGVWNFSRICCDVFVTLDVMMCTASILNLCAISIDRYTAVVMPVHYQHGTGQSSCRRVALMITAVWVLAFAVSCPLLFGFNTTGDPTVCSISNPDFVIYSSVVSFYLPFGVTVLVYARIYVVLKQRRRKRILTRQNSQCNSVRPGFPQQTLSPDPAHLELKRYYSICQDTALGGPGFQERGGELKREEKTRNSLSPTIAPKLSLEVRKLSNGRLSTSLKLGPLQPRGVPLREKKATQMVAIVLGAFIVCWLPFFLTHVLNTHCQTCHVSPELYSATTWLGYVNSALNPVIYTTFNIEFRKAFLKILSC
T5 sequence (P21918 whole entry): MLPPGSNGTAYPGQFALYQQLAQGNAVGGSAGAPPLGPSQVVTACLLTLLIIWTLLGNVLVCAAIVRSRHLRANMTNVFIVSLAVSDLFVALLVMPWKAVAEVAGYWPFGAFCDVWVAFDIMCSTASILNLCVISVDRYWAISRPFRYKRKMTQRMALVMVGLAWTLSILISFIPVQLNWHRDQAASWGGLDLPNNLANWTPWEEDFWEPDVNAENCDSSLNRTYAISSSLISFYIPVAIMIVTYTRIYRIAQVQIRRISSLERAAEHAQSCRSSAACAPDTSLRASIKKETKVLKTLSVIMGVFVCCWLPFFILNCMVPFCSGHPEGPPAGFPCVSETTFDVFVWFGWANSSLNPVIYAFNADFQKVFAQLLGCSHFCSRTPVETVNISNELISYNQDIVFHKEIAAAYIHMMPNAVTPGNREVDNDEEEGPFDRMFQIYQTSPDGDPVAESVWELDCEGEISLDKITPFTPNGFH

Regarding `Oc1cc2c(cc1O)[C@H]1c3ccccc3CN[C@@H]1CC2` (racemic) [Dihydrexidine, reference compound], the “increase in [35S]-GTPγS binding compared with SKF38393” value on hD1 receptor [1] (membrane preparations from HEK293-hD1 cells, 1 μM GDP) is listed as “significantly higher increase”.
On to `BrCCN1CCc2ccccc2Cc2[nH]c3ccccc3c2CC1` [AHAD11], for which the Ki at hD1 receptor [2] (read-out: pKi hD1 (converted)) is 1510 nM.
For the compound `CN1CCc2ccccc2Cc2[nH]c3ccccc3c2CC1` [LE300], the Ki is 64.6 nM on hD2L receptor [3]; 10 ± 1.15 nM at hD1 receptor [2] (0.2 nM [3H]SCH23390, Krebs-HEPES buffer pH 7.4, n = 3, read-out: Ki (Krebs-HEPES) hD1); 2.36 ± 0.13 nM on hD1 receptor [2] (0.2 nM [3H]SCH23390, TRIS-HCl pH 7.4, n = 3, read-out: Ki (TRIS-HCl) hD1); 10.5 nM on hD1 receptor [2] (heterologous competition, 0.2 nM [3H]SCH23390, Krebs-HEPES buffer pH 7.4, mean ± SEM, n ≥ 3, read-out: pKi hD1 (converted)); 11.7 nM at hD2L receptor [4] (read-out: pKi app [Ca2+]i hD2L (converted)); 347 nM at hD4.4 receptor. In addition, the Ki at hD3 receptor was 331 nM; on h5HT2A receptor it was 0.224 nM; on hD2L receptor [6], 7.24 nM; on hD5 receptor it was 10.2 nM; on hD1 receptor [1] (read-out: pKi app [35S]-GTPγS binding hD1 (converted)), 17.8 nM; on hD2L receptor [7], 1.86 nM. Further, the Ki on hD1 receptor [8] (read-out: pKi app [cAMP]i hD1 (converted)) was 28.2 nM. The compound also gave a Ki-D1/Ki-D2 at hD1 receptor [2] of 0.16. The “fold higher Ki using Krebs-HEPES instead of TRIS-HCl buffer, hD1” value on hD1 receptor [2] was ~ 4 fold. For the same compound, the “pKi app [Ca2+]i hD1” value on hD1 receptor [5] is on record as 7.22 ± 0.15. In addition, the IC50 came out at 718 ± 168 nM at hD1 receptor [5] (read-out: IC50 [Ca2+] hD1 (antagonist)) and 123 ± 31.1 nM at hD1 receptor [8] (read-out: IC50 [cAMP] hD1 (antagonist)).
Regarding `CN1CCc2ccccc2Cc2cc(O)c(O)cc2CC1` [LE403], on hD1 receptor [2], the “higher affinities for D1-like than for D2-like receptors” value is reported as “up to 33 fold”. Besides, the figures for the Ki on hD3 receptor and at h5HT2A receptor were 724 nM and 3.98 nM, respectively.
On to `CN1CCc2ccccc2Cc2ccc(O)cc2CC1` [LE404], for which, on hD1 receptor [2], the “higher affinities for D1-like than for D2-like receptors” value was “up to 33 fold”. Also, at hD2L receptor [4] (setting [11]), the “nature of antagonism at D2L receptors” value is “competitive antagonistic behaviour”. The “nature of antagonism at D1 receptors” value on hD1 receptor [5] (setting [11]) was “competitive antagonistic behaviour”. In addition, at hD1 receptor [5] (apparent functional Ki, Ca2+ (table 5)), the “D1 preference over D2L in Ca2+ studies” value amounted to 3 fold. On h5HT2A receptor, the Ki was 1.62 nM.
Consider `CN(C)CCC=C1c2ccccc2C=Nc2ccc(Cl)cc21` [RMI-81582, 2-chloro-11-(3-dimethylaminopropylidene)morphanthridine], for which the “Ki-D1/Ki-D2 (calculated from literature)” value on hD1 receptor [9] is 0.05^a). Also, on hD2L receptor [10], the “Ki-D2/Ki-5HT2A (calculated from literature)” value is listed as 31.6^a).
